According to patent US9896447B2, “TrkA kinase inhibitors, compositions and methods thereof” (MERCK SHARP & DOHME CORP., priority 2013, dated 2018):

These compounds were tested against TrkA receptor (Homo sapiens (Human), UniProt P04629) (assay: DiscoverX PathHunter TrkA functional assay (U2OS cells, NGF stimulated)). Conditions: U2OS cells expressing TrkA-Prolink and Shc1-EA; compound 1 hour, then EC80 of NGF for 3 hours; luminescence.
Type: cell-based
Description: TrkA functional activity was measured using a DiscoverX PathHunter assay. In this assay, U2OS cells are express TrkA receptor as a fusion with the weakly complementing fragment of B-galactosidase, which DiscoverX calls “Prolink (PK)”; additionally, Shc1 is fused with a larger fragment, which is called “Enzyme Acceptor (EA)”. Activation of the TrkA receptor, upon NGF addition, results in the kinase domain being phosphorylated, resulting in subsequent recruitment of Shc1-EA protein. That recruitment results in an active B-galactosidase enzyme that is detected by addition of a chemiluminescent substrate.
All reagents were purchased from DiscoverX, except for the receptor agonists (NGF, BDNF, NT3) which were purchased from Peprotech. Cells were expanded and frozen into cryovials (TrkA p75 @ passage 13, 1.5×10^7 cells/vial; TrkC p75 @ passage 11, 1.5×10^7 cells/vial in InVitrogen Recovery Cell Freezing media), and stored in the vapor phase of liquid nitrogen, and thawed immediately before use. Thawed cells were added to a 384-well plate (BD Falcon 384-well white/clear, TC surface 120 uL assay plates (353963), 20 uL of 0.375e6 cells/mL=>7500 cells/well), and allowed to incubate overnight. Compound (10 mM starting dose: 202.5 nL compound yielding 0.81% DMSO final in total assay volume and starting doses 81 uM) was added the following morning and allowed to incubate on cells for 1 hour. Then, 5 uL EC80 of agonist (NGF for TrkA; BDNF for TrkB; NT3 for TrkC) was added and allowed to incubate for 3 hours at room temperature. DiscoverX PathHunter detection reagent is added (12 uL to plate and components diluted in parts as per kit instructions) and the plate is further incubated for 1 hour in the dark. The plate is read via luminescence on the Perkin Elmer Envision.

Chain of TrkA receptor (P04629 33-796): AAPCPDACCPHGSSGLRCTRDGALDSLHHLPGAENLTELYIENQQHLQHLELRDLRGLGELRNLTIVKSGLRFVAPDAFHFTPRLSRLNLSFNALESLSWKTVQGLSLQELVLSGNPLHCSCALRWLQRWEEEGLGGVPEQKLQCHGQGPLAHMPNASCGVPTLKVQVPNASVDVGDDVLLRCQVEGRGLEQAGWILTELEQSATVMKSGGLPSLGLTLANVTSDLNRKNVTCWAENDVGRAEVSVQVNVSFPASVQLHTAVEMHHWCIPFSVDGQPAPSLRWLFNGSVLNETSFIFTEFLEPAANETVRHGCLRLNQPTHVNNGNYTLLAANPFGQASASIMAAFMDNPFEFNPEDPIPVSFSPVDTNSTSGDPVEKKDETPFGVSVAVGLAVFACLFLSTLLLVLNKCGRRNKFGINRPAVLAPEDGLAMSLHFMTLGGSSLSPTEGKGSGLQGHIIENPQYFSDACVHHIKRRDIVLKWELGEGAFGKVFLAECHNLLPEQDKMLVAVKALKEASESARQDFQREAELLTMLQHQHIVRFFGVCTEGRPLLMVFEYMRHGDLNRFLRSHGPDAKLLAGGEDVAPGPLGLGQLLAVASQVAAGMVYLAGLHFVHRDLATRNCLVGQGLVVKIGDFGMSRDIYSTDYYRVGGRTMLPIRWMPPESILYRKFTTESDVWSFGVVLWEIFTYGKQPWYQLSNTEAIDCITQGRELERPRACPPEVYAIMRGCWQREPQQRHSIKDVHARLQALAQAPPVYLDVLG

SMILES	IC50 [nM]
O=C(Nc1c(-c2ccccc2)nc2ccccn12)Nc1c(-c2ccccc2)nc2ccccn12 [Compound 1, 1,3-bis(2-phenylimidazo[1,2-a]pyridin-3-yl)urea]	82
O=C(Nc1ccccn1)Nc1cc(-c2ccccc2)nn1-c1ccccc1 [Compound 2, 1-(1,3-diphenyl-1H-pyrazol-5-yl)-3-pyridin-2-ylurea]	160
Cc1cc(NC(=O)Nc2cc(C)nn2-c2ccccc2)n(-c2ccccc2)n1 [Compound 3, 1,3-bis(3-methyl-1-phenyl-1H-pyrazol-5-yl)urea]	2700
Cc1cc(NC(=O)Nc2cccc3ccccc23)n(-c2ccccc2)n1 [Compound 4, 1-(3-methyl-1-phenyl-1H-pyrazol-5-yl)-3-naphthalen-1-ylurea]	590
Cc1cc(NC(=O)Nc2cccc(Br)n2)n(-c2ccccc2)n1 [Compound 5, 1-(6-bromopyridin-2-yl)-3-(3-methyl-1-phenyl-1H-pyrazol-5-yl)urea]	4800
Cc1cc(NC(=O)Nc2ccccc2-c2ccccc2)n(-c2ccccc2)n1 [Compound 6, 1-biphenyl-2-yl-3-(3-methyl-1-phenyl-1H-pyrazol-5-yl)urea]	420
Cc1cc(NC(=O)Nc2cccc(C)c2C)n(-c2ccccc2)n1 [Compound 7, 1-(2,3-dimethylphenyl)-3-(3-methyl-1-phenyl-1H-pyrazol-5-yl)urea]	4800
Cc1cc(NC(=O)Nc2cc(Br)ccn2)n(-c2ccccc2)n1 [Compound 8, 1-(4-bromopyridin-2-yl)-3-(3-methyl-1-phenyl-1H-pyrazol-5-yl)urea]	3000
O=C(Nc1ccccn1)Nc1cc(-c2ccncc2)nn1-c1ccccc1 [Compound 9, 1-(1-phenyl-3-pyridin-4-yl-1H-pyrazol-5-yl)-3-pyridin-2-ylurea]	350
Cc1cc(NC(=O)Nc2ccccn2)n(-c2ccccc2)n1 [Compound 10, 1-(3-methyl-1-phenyl-1H-pyrazol-5-yl)-3-pyridin-2-ylurea]	1800
COc1ccc(NC(=O)Nc2cc(C)nn2-c2ccccc2)nc1 [Compound 11, 1-(5-methoxypyridin-2-yl)-3-(3-methyl-1-phenyl-1H-pyrazol-5-yl)urea]	3400
Cc1ccc(NC(=O)Nc2ccccn2)c(-c2ccccc2)n1 [Compound 12, 1-(6-methyl-2-phenylpyridin-3-yl)-3-pyridin-2-ylurea]	1100
Cc1ncc(NC(=O)Nc2ccccc2-c2ccccc2)c(-c2ccccc2)n1 [Compound 13, 1-biphenyl-2-yl-3-(2-methyl-4-phenylpyrimidin-5-yl)urea]	2300
Cc1onc(-c2ccccc2)c1NC(=O)NCc1ccccc1C(F)(F)F [Compound 14, 1-(5-methyl-3-phenylisoxazol-4-yl)-3-[2-(trifluoromethyl)benzyl]urea]	350
Cc1ncc(NC(=O)Nc2cccc3ccccc23)c(-c2ccccc2)n1 [Compound 15, 1-(2-methyl-4-phenylpyrimidin-5-yl)-3-naphthalen-1-ylurea]	4100
O=C(Nc1cccc2ccccc12)Nc1c(-c2ccccc2)nc2sccn12 [Compound 16, 1-naphthalen-1-yl-3-(6-phenylimidazo[2,1-b][1,3]thiazol-5-yl)urea]	290
Cc1ncc(NC(=O)Nc2cnc(C)nc2-c2ccccc2)c(-c2ccccc2)n1 [Compound 17, 1,3-bis(2-methyl-4-phenylpyrimidin-5-yl)urea]	1400
CSc1ncc(NC(=O)Nc2cnc(SC)nc2-c2ccccc2)c(-c2ccccc2)n1 [Compound 18, 1,3-bis[2-(methylsulfanyl)-4-phenylpyrimidin-5-yl]urea]	280
Cc1ncc(NC(=O)Nc2ccccn2)c(-c2ccccc2)n1 [Compound 20, 1-(2-methyl-4-phenylpyrimidin-5-yl)-3-pyridin-2-ylurea]	4000
Cc1ncc(NC(=O)Nc2c(-c3ccccc3)nc3ccccn23)c(-c2ccccc2)n1 [Compound 21, 1-(2-methyl-4-phenylpyrimidin-5-yl)-3-(2-phenylimidazo[1,2-a]pyridin-3-yl)urea]	150

SMILES	IC50 [nM]
O=C(Nc1ccc(C(F)(F)F)cc1Cl)Nc1c(-c2ccccc2)nc2ccccn12 [Compound 22, 1-[2-chloro-4-(trifluoromethyl)phenyl]-3-(2-phenylimidazo[1,2-a]pyridin-3-yl)urea]	4200
O=C(Nc1ccc(C(F)(F)F)cc1)Nc1c(-c2ccccc2)nc2ccccn12 [Compound 23, 1-(2-phenylimidazo[1,2-a]pyridin-3-yl)-3-[4-(trifluoromethyl)phenyl]urea]	4300
O=C(Nc1cccnc1-c1ccccc1)Nc1c(-c2ccccc2)nc2ccccn12 [Compound 24, 1-(2-phenylimidazo[1,2-a]pyridin-3-yl)-3-(2-phenylpyridin-3-yl)urea]	450
Cc1cc(NC(=O)Nc2c(-c3ccccc3)nc3ccccn23)n(-c2ccccc2)n1 [Compound 25, 1-(3-methyl-1-phenyl-1H-pyrazol-5-yl)-3-(2-phenylimidazo[1,2-a]pyridin-3-yl)urea]	520
Cc1nc(-c2ccccc2)c(NC(=O)Nc2c(-c3ccccc3)nc3ccccn23)s1 [Compound 26, 1-(2-methyl-4-phenyl-1,3-thiazol-5-yl)-3-(2-phenylimidazo[1,2-a]pyridin-3-yl)urea]	48
Cn1ccnc1-c1cccc(NC(=O)Nc2c(-c3ccccc3)nc3ccccn23)c1 [Compound 27, 1-[3-(1-methyl-1H-imidazol-2-yl)phenyl]-3-(2-phenylimidazo[1,2-a]pyridin-3-yl)urea]	1600
CCOC(=O)c1nc2ccccn2c1NC(=O)Nc1c(-c2ccccc2)nc2ccccn12 [Compound 28, ethyl 3-{[(2-phenylimidazo[1,2-a]pyridin-3-yl)carbamoyl]amino} imidazo[1,2-a]pyridine-2-carboxylate]	460
O=C(Nc1c(-c2ccccc2)nc2ccccn12)Nc1c(-n2cccn2)nc2ccccn12 [Compound 29, 1-(2-phenylimidazo[1,2-a]pyridin-3-yl)-3-[2-(1H-pyrazol-1-yl)imidazo[1,2-a]pyridin-3-yl]urea]	1400
O=C(Nc1c(-c2ccccc2)nc2ccccn12)Nc1c(-c2ccccc2)nc2ncccn12 [Compound 30, 1-(2-phenylimidazo[1,2-a]pyridin-3-yl)-3-(2-phenylimidazo[1,2-a]pyrimidin-3-yl)urea]	1500
O=C(Nc1c(-c2ccccc2)nc2ccccn12)Nc1c(-c2ccccc2)nc2ccc(Cl)nn12 [Compound 31, 1-(6-chloro-2-phenylimidazo[1,2-b]pyridazin-3-yl)-3-(2-phenylimidazo[1,2-a]pyridin-3-yl)urea]	1000
CNC(=O)c1nc2ccccn2c1NC(=O)Nc1c(-c2ccccc2)nc2ccccn12 [Compound 32, N-methyl-3-{[(2-phenylimidazo[1,2-a]pyridin-3-yl)carbamoyl]amino}imidazo[1,2-a]pyridine-2-carboxamide]	1000
Cc1nc(-c2ccccc2)c(NC(=O)Nc2c(-c3ccccc3)ncn2C)s1 [Compound 33, 1-(1-methyl-4-phenyl-1H-imidazol-5-yl)-3-(2-methyl-4-phenyl-1,3-thiazol-5-yl)urea]	4000
Cc1nc(-c2ccccc2)c(NC(=O)Nc2c(-c3ccccc3)nc(C)n2C)s1 [Compound 34, 1-(1,2-dimethyl-4-phenyl-1H-imidazol-5-yl)-3-(2-methyl-4-phenyl-1,3-thiazol-5-yl)urea]	4100
Cc1nc(-c2ccccc2)c(NC(=O)Nc2sc(C)nc2-c2ccccc2)s1 [Compound 35, 1,3-bis(2-methyl-4-phenyl-1,3-thiazol-5-yl)urea]	610
Cc1ncc(NC(=O)Nc2sc(C)nc2-c2ccccc2)c(-c2ccccc2)n1 [Compound 36, 1-(2-methyl-4-phenylpyrimidin-5-yl)-3-(2-methyl-4-phenyl-1,3-thiazol-5-yl)urea]	2300
Cc1nc(-c2ccccc2)c(NC(=O)Nc2cccnc2-c2ccccc2)s1 [Compound 37, 1-(2-methyl-4-phenyl-1,3-thiazol-5-yl)-3-(2-phenylpyridin-3-yl)urea]	1800
O=C(NCc1cc(F)ccc1C(F)(F)F)Nc1ccnn1-c1ccccc1 [Compound 38, 1-[5-fluoro-2-(trifluoromethyl)benzyl]-3-(1-phenyl-1H-pyrazol-5-yl)urea]	1100
O=C(NCc1ccc(F)cc1C(F)(F)F)Nc1ccnn1-c1ccccc1 [Compound 39, 1-[4-fluoro-2-(trifluoromethyl)benzyl]-3-(1-phenyl-1H-pyrazol-5-yl)urea]	1400
Cc1ncc(NC(=O)NCc2ccccc2SC(F)(F)F)c(-c2ccccc2)n1 [Compound 40, 1-(2-methyl-4-phenylpyrimidin-5-yl)-3-{2-[(trifluoromethyl)sulfanyl]benzyl}urea]	680
Cc1ncc(NC(=O)N[C@@H](C)C2CCCCC2)c(-c2ccccc2)n1 [Compound 41, 1-[(1S)-1-cyclohexylethyl]-3-(2-methyl-4-phenylpyrimidin-5-yl)urea]	2100
